Marks after values point to notes of the source that are not given here. Bridge positions count the residues as written; N and C are the ends. Ends that are not written are not given here.
Key:
[1] = Hydrophobic chromatography elution (Sep-Pak t-C18, methanol steps) as measure of hydrophobicity; type: physicochemical; details: Sep-Pak t-C18 cartridge, water:methanol steps of 10% from 0 to 100% in 10 mM HCl; used as indication of hydrophobicity
Protocol: Purification of the two mutacins was achieved by two hydrophobic chromatography steps as previously described by replacing TFA with HCl (10 mM). Briefly, the active preparation was loaded on a Sep-Pak® Vac 35 cc (10 g) t-C18 Cartridge (Waters Corporation, Milford, MA, USA). Cartridges were first equilibrated with 500 mL of methanol followed by 500 mL of deionized distilled water. Antibacterial compounds were eluted with successive steps of 500 mL of water:methanol mixtures increasing the gradient of methanol by 10% from 0 to 100% in 10 mM HCl. This was carried out at a flow rate of 1 mL/min and UV detection at 214 nm. The final purification step was carried out by reverse phase chromatography (RP)-HPLC analysis (Beckman Gold Model, Coulter Canada Inc., Mississauga, ON, Canada) using an analytical C18 column (Luna 5 μ C18(2), 250 × 4.6 mm, 4 × 3.0 mm, Phenomenex, Torrance, CA, USA). Elution was carried out with solvent A (5% acetonitrile, 10 mM HCl) and solvent B (60% acetonitrile, 10 mM HCl) and recorded at 214 nm. The following program of elution was developed: 0 to 3 min, constant 100% A; 3 to 15 min, a linear gradient from 100% A to 100% B; 15 to 20 min, constant 100% B; 20 to 23 min, a linear gradient from 100% B to 100% A. A flow rate of 1 mL/min was used. […] Protein concentration in active fractions was determined using the BioRad DC protein assay (BioRad, Mississauga, ON, Canada).

[2] = system: Enterococcus hirae ATCC 8043; experiment: Inhibitory spectrum, critical dilution with spot test; type: cell-based; details: purified mutacin, 5 μL spotted on soft agar lawn on TSAYE; reciprocal of highest dilution showing inhibition zone
Protocol: (§1) Streptococcus mutans 59.1 and 123.1 produce mutacins F-59.1 and D-123.1 respectively. Micrococcus luteus ATCC 272 (ATCC, Manassas, VA, USA) was used as the indicator strain for the mutacin activity assays. All bacteria were routinely grown aerobically at 37°C in TSBYE made of TSB (Difco laboratories, Detroit, MI, USA) supplemented with 0.3% yeast extract (Becton Dickinson & Co., Cockeysville, MD, USA) or on TSAYE plates made of TSA (Difco) enriched with 0.3% yeast extract. Lactobacillus salivarius strain (provided by Sylvain Moineau, Université Laval, Québec, QC, Canada) was cultivated aerobically at 30°C in MRS medium (Oxoid, Nepean, ON, Canada). Other bacterial strains used for the inhibitory spectra determination are described in Mota-Meira et al. and Morency et al.. Staphylococcus carnosus was obtained from the strain collection of the Department of Microbiology, Biochemistry and Bioinformatics (Université Laval).
(§2) Mutacin activity was determined by the spot test using Micrococcus luteus ATCC 272 as sensitive strain where two-fold dilutions were prepared in acidified (pH 2) peptone water (0.5%). Antibacterial activity spectra of purified mutacins was tested against a panel of bacterial strains using the critical dilution method combined with the spot test method as described previously. Briefly, overnight cultures of test strains in TSBYE were diluted in fresh broth before inoculating 5 mL of soft agar (0.75%) in order to obtain confluent lawns of growth on TSAYE plates. Five μL of purified mutacins, diluted in acidified (10 mM HCl) distilled water to promote solubility of the peptides, were deposited on the lawn and allowed to dry before appropriate incubation. Mutacin activity was expressed in AU/mL and corresponds to the reciprocal of the highest dilution showing a noticeable inhibition zone on the lawn.

[3] = system: Staphylococcus aureus ATCC 6538; experiment: as above; type: cell-based; details: purified mutacin, 5 μL spotted on soft agar lawn on TSAYE; reciprocal of highest dilution showing inhibition zone
Protocol: as §1, §2

[4] = system: Micrococcus luteus ATCC 272; experiment: as above; type: cell-based; details: purified mutacin, 5 μL spotted on soft agar lawn on TSAYE; reciprocal of highest dilution showing inhibition zone
Protocol: as §1, §2

[5] = system: Listeria monocytogenes ATCC 15313; experiment: as above; type: cell-based; details: purified mutacin, 5 μL spotted on soft agar lawn on TSAYE; reciprocal of highest dilution showing inhibition zone
Protocol: as §1, §2

[6] = system: Lactobacillus salivarius SMQ 876; experiment: as above; type: cell-based; details: purified mutacin, 5 μL spotted on soft agar lawn; reciprocal of highest dilution showing inhibition zone
Protocol: as §1, §2

[7] = system: Streptococcus sobrinus ATCC 27352; experiment: as above; type: cell-based; details: purified mutacin, 5 μL spotted on soft agar lawn on TSAYE; reciprocal of highest dilution showing inhibition zone
Protocol: as §1, §2

[8] = system: Streptococcus suis serotype 2; experiment: as above; type: cell-based; details: purified mutacin, 5 μL spotted on soft agar lawn on TSAYE; reciprocal of highest dilution showing inhibition zone
Protocol: as §1, §2

[9] = system: Bacillus subtilis ATCC 6051; experiment: as above; type: cell-based; details: purified mutacin, 5 μL spotted on soft agar lawn on TSAYE; reciprocal of highest dilution showing inhibition zone
Protocol: as §1, §2

[10] = system: Pediococcus acidilactici UL5; experiment: as above; type: cell-based; details: purified mutacin, 5 μL spotted on soft agar lawn on TSAYE; reciprocal of highest dilution showing inhibition zone
Protocol: as §1, §2

[11] = system: Streptococcus pyogenes ATCC 10389; experiment: as above; type: cell-based; details: purified mutacin, 5 μL spotted on soft agar lawn on TSAYE; reciprocal of highest dilution showing inhibition zone
Protocol: as §1, §2

Staphylococcus carnosus = experiment: as above; type: cell-based; details: purified mutacin, 5 μL spotted on soft agar lawn on TSAYE; reciprocal of highest dilution showing inhibition zone
Protocol: as §1, §2

[12] = system: Listeria grayi ATCC 19120; experiment: as above; type: cell-based; details: purified mutacin, 5 μL spotted on soft agar lawn on TSAYE; reciprocal of highest dilution showing inhibition zone
Protocol: as §1, §2

Listeria ivanovii HPB 28 = experiment: as above; type: cell-based; details: purified mutacin, 5 μL spotted on soft agar lawn on TSAYE; reciprocal of highest dilution showing inhibition zone
Protocol: as §1, §2

Streptococcus salivarius = experiment: as above; type: cell-based; details: purified mutacin, 5 μL spotted on soft agar lawn on TSAYE; reciprocal of highest dilution showing inhibition zone
Protocol: as §1, §2

[13] = system: Enterococcus faecium ATCC 19434; experiment: as above; type: cell-based; details: purified mutacin, 5 μL spotted on soft agar lawn on TSAYE; reciprocal of highest dilution showing inhibition zone
Protocol: as §1, §2

[14] = system: Enterococcus faecalis ATCC 27235; experiment: as above; type: cell-based; details: purified mutacin, 5 μL spotted on soft agar lawn on TSAYE; reciprocal of highest dilution showing inhibition zone
Protocol: as §1, §2

Bacillus cereus ATCC 2 = experiment: as above; type: cell-based; details: purified mutacin, 5 μL spotted on soft agar lawn on TSAYE; reciprocal of highest dilution showing inhibition zone
Protocol: as §1, §2

In the case of “KYYGNGVTCGKHSCSVDWSKATTNI (disulfide 9-14 (inferred)) [mutacin F-59.1, pediocin-like (class IIa) bacteriocin of 25 amino acids produced by Streptococcus mutans 59.1; UniProt P86386]”, the “Elution gradient at which active fractions were recovered (methanol in 10 mM HCl)” value [1] is reported as 50%-60%, the “Activity of mutacin against Enterococcus hirae ATCC 8043” value [2] is reported as 200 AU/mL and the “Activity of mutacin against Staphylococcus aureus ATCC 6538” value [3] is reported as 0 AU/mL. For the same sequence, the “Activity of mutacin against Micrococcus luteus ATCC 272” value [4] was 3200 AU/mL, the “Activity of mutacin against Listeria monocytogenes ATCC 15313” value [5] was 200^b AU/mL and the “Activity of mutacin against Lactobacillus salivarius SMQ 876” value [6] was 0 AU/mL. For the same sequence, the “Activity of mutacin against Streptococcus sobrinus ATCC 27352” value [7] was 800 AU/mL, the “Activity of mutacin against Streptococcus suis serotype 2” value [8] was 0 AU/mL and the “Activity of mutacin against Bacillus subtilis ATCC 6051” value [9] was 400 AU/mL. The “Activity of mutacin against Pediococcus acidilactici UL5” value [10] was 800 AU/mL, the “Activity of mutacin against Streptococcus pyogenes ATCC 10389” value [11] was 0 AU/mL and the “Activity of mutacin against Staphylococcus carnosus” value (Staphylococcus carnosus) was 800 AU/mL. For the same sequence, the “Activity of mutacin against Listeria grayi ATCC 19120” value [12] was 200 AU/mL, the “Activity of mutacin against Listeria ivanovii HPB 28” value (Listeria ivanovii HPB 28) was 200 AU/mL and the “Activity of mutacin against Streptococcus salivarius ATCC 25923” value (Streptococcus salivarius) was 800 AU/mL. For the same sequence, the “Activity of mutacin against Enterococcus faecium ATCC 19434” value [13] was 1600 AU/mL, the “Activity of mutacin against Enterococcus faecalis ATCC 27235” value [14] was 200 AU/mL and the “Activity of mutacin against Bacillus cereus ATCC 2” value (Bacillus cereus ATCC 2) was 400 AU/mL.

Reference: article PMC3088537, “Production, purification, sequencing and activity spectra of mutacins D-123.1 and F-59.1” (BMC Microbiology, 2011)
